We go through nine molecules from patent publication US5003011A, “Therapeutic decapeptides” (The Administrators of the Tulane Educational Fund, priority 1989, dated 1991).

This data set in a line: Body weight ratio (FBW/IBW) in the MCF-7 subrenal capsule assay. Format: in vivo, mice. From the text:
Female CDF-1 mice were implanted with a human mammary tumor (MCF-7) underneath the kidney capsules on day 0. […] The negative control group received vehicle only and the positive control was ovariectomized on day 0.

Setting [1] is: Table 2, 100 μg/inj. s.c., QDO5.

Numbered stars: 1 amine (or outer) side, 2 acyl side, 3 side chain; on linkers, the order of the positions; unused ones are H or OH. Square brackets hold non-standard residues; d marks the D form. Peptide text beside a SMILES is read from it. X1 = O=C([C@@H](CCCCNC1CCCC1)N[*:1])[*:2]; X2 = O=C([C@H](CCCCNC1CCCC1)N[*:1])[*:2]; d2Nal = N[C@H](Cc1ccc2ccccc2c1)C(=O)O

As to `CC(C)C[C@H](NC(=O)[C@@H](Cc1c[nH]c2ccccc12)NC(=O)[C@H](Cc1ccc(O)cc1)NC(=O)[C@H](CO)NC(=O)[C@H](Cc1c[nH]c2ccccc12)NC(=O)[C@H](Cc1c[nH]cn1)NC(=O)[C@@H]1CCC(=O)N1)C(=O)N[C@@H](CCCNC(=N)N)C(=O)N1CCC[C@H]1C(=O)NCC(N)=O` [BIM-21003, reference compound], the “FBW/IBW = Final Body Weight/Initial Body Weight” value under setting [1] came out at 1.04.

Regarding `CC(C)C[C@H](NC(=O)[C@@H](Cc1ccccc1)NC(=O)[C@H](Cc1ccc(O)cc1)NC(=O)[C@H](CO)NC(=O)[C@H](Cc1c[nH]c2ccccc12)NC(=O)[C@H](Cc1c[nH]cn1)NC(=O)[C@@H]1CCC(=O)N1)C(=O)N[C@@H](CCCNC(=N)N)C(=O)N1CCC[C@H]1C(=O)NCC(N)=O` [BIM-21006, reference compound], the “FBW/IBW = Final Body Weight/Initial Body Weight” value under setting [1] is reported as 0.99.

In the case of `CC(=O)N[C@H](Cc1ccc2ccccc2c1)C(=O)N[C@H](Cc1ccc(Cl)cc1)C(=O)N[C@H](Cc1ccccc1)C(=O)N[C@@H](CO)C(=O)N[C@@H](Cc1ccc(O)cc1)C(=O)N[C@H](CCCNC(=N)N)C(=O)N[C@@H](Cc1ccccc1)C(=O)N[C@@H](CCCNC(=N)N)C(=O)N1CCC[C@H]1C(=O)N[C@H](C)C(N)=O` [BIM-21009] (HELM PEPTIDE1{[ac].[O=C([C@@H](Cc1ccc2ccccc2c1)N[*:1])[*:2]].[O=C([C@@H](Cc1ccc(Cl)cc1)N[*:1])[*:2]].[dF].S.Y.[dR].F.R.P.[dA].[am]}$$$$V2.0), the “FBW/IBW = Final Body Weight/Initial Body Weight” value runs as follows: (Table 2, 1 μg/inj. s.c., QDO5) 0.98; (Table 2, 10 μg/inj. s.c., QDO5) 0.99.

Consider `CC(=O)N[C@H](Cc1ccc2ccccc2c1)C(=O)N[C@H](Cc1ccccc1)C(=O)N[C@H](Cc1ccccc1)C(=O)N[C@@H](CO)C(=O)N[C@@H](Cc1ccc(O)cc1)C(=O)N[C@H](CCCNC(=N)N)C(=O)N[C@@H](Cc1ccccc1)C(=O)N[C@@H](CCCNC(=N)N)C(=O)N1CCC[C@H]1C(=O)N[C@H](C)C(N)=O` [BIM-21011] (HELM PEPTIDE1{[ac].[O=C([C@@H](Cc1ccc2ccccc2c1)N[*:1])[*:2]].[dF].[dF].S.Y.[dR].F.R.P.[dA].[am]}$$$$V2.0), for which the “FBW/IBW = Final Body Weight/Initial Body Weight” value by setting is: (Table 2, 1 μg/inj. s.c., QDO5) 0.98; (Table 2, 10 μg/inj. s.c., QDO5) 0.99; (Table 2, 15 μg/inj. s.c., QDO5) 0.99.

`CC(=O)N[C@H](Cc1ccc2ccccc2c1)C(=O)N[C@H](Cc1ccc(Cl)cc1)C(=O)N[C@H](Cc1c[nH]c2ccccc12)C(=O)N[C@@H](CO)C(=O)N[C@@H](Cc1ccc(O)cc1)C(=O)N[C@H](CCCNC(=N)N)C(=O)N[C@@H](Cc1ccccc1)C(=O)N[C@@H](CCCNC(=N)N)C(=O)N1CCC[C@H]1C(=O)N[C@H](C)C(N)=O` [BIM-21023] (HELM PEPTIDE1{[ac].[O=C([C@@H](Cc1ccc2ccccc2c1)N[*:1])[*:2]].[O=C([C@@H](Cc1ccc(Cl)cc1)N[*:1])[*:2]].[dW].S.Y.[dR].F.R.P.[dA].[am]}$$$$V2.0): for the setting “Table 3, 25 μg/inj. s.c., QDO5”, the “FBW/IBW = Final Body Weight/Initial Body Weight” value came to 1.01.

`CC(=O)N[C@H](Cc1ccc2ccccc2c1)C(=O)N[C@H](Cc1ccccc1)C(=O)N[C@H](Cc1ccccc1)C(=O)N[C@@H](CO)C(=O)N[C@@H](Cc1ccccc1)C(=O)N[C@H](CCCNC(=N)N)C(=O)N[C@@H](CC(C)C)C(=O)N[C@@H](CCCNC(=N)N)C(=O)N1CCC[C@H]1C(=O)N[C@H](C)C(N)=O` [BIM-21024] (HELM PEPTIDE1{[ac].[O=C([C@@H](Cc1ccc2ccccc2c1)N[*:1])[*:2]].[dF].[dF].S.F.[dR].L.R.P.[dA].[am]}$$$$V2.0): under “Table 3, 25 μg/inj. s.c., QDO5”, the “FBW/IBW = Final Body Weight/Initial Body Weight” value came to 1.00.

For the molecule `CC(=O)N[C@H](Cc1ccc2ccccc2c1)C(=O)N[C@H](Cc1ccccc1)C(=O)N[C@H](Cc1ccccc1)C(=O)N[C@@H](CO)C(=O)N[C@@H](Cc1ccc(O)cc1)C(=O)N[C@H](CCCCNCc1ccccc1)C(=O)N[C@@H](Cc1ccccc1)C(=O)N[C@@H](CCCNC(=N)N)C(=O)N1CCC[C@H]1C(=O)N[C@H](C)C(N)=O` [BIM-21025] (HELM PEPTIDE1{[ac].[O=C([C@@H](Cc1ccc2ccccc2c1)N[*:1])[*:2]].[dF].[dF].S.Y.[O=C([C@@H](CCCCNCc1ccccc1)N[*:1])[*:2]].F.R.P.[dA].[am]}$$$$V2.0), for the setting “Table 3, 25 μg/inj. s.c., QDO5”, the “FBW/IBW = Final Body Weight/Initial Body Weight” value was 0.97.

Regarding `CC(=O)N[C@H](Cc1ccc2ccccc2c1)C(=O)N[C@H](Cc1ccccc1)C(=O)N[C@H](Cc1ccccc1)C(=O)N[C@@H](CO)C(=O)N[C@@H](Cc1ccc(O)cc1)C(=O)N[C@H](CCCCNC1CCCC1)C(=O)N[C@@H](Cc1ccccc1)C(=O)N[C@@H](CCCCNC1CCCC1)C(=O)N1CCC[C@H]1C(=O)N[C@H](C)C(N)=O` [BIM-21026] (Ac-[d2Nal][dF][dF]SY[X1]F[X2]P[dA]-NH2), the “FBW/IBW = Final Body Weight/Initial Body Weight” value (Table 3, 25 μg/inj. s.c., QDO5) is 1.01.

Consider `CC(C)[C@@H]1NC(=O)[C@H](CCCCN)NC(=O)[C@@H](Cc2c[nH]c3ccccc23)NC(=O)[C@H](Cc2ccc(O)cc2)NC(=O)[C@@H](NC(=O)[C@H](N)Cc2ccc3ccccc3c2)CSSC[C@@H](C(=O)N[C@H](C(N)=O)[C@@H](C)O)NC1=O` [BIM-23014C, reference compound], for which the “FBW/IBW = Final Body Weight/Initial Body Weight” value runs as follows: (Table 3, 2 μg/inj. s.c., QDO5, b.i.d.) 1.00; (Table 3, 10 μg/inj. s.c., QDO5, b.i.d.) 0.99; (Table 3, 50 μg/inj. s.c., QDO5, b.i.d.) 0.98.
